In assay [1] the test system is Npc1^−/− (BALB/cNctr-Npc1^m1N/J) mouse. The assay can be described thus: In vivo mouse study in Npc1-/- mouse model of NPC (coat, weight, CatWalk gait, open field motor function, lifespan). As to the method:
Separate groups of Npc1^-/- and Npc1^+/+ mice were left untreated, as controls. […] Animals were weighed twice a week. Weights were averaged (mean) across all mice in each group and compared. Gait analysis was performed on mice at eight weeks of age using a CatWalk® 15.0 system according to manufacturer's instructions (Noldus, Nottingham, UK). Five runs were recorded per animal. CatWalk® parameters measured were: • 1. Stand Mean: average duration (s) of paws in contact with glass plate; • 2. Step Cycle: duration (s) between two consecutive contacts of the same paw; • 3. Duty Cycle: percentage of time paws in contact with plate compared with time to complete a step cycle; • 4. Step Sequence (AB): percentage of time spent walking in LF-RH-RF-LH alternating pattern (LF: left front; RH: right hind; RF: right front; LH left hind); • 5. Cadence: step per seconds in a trial; • 6. Diagonal Support: percentage of time with simultaneous contact of diagonal paws with the glass plate (RF&LH or RH&LF). Motor Function Analysis Motor function analysis was performed on mice at eight and nine weeks of age using an Open Field Activity Monitor according to manufacturer's instructions (Linton Instruments, Amlogger Software). Each mouse was placed in a plastic cage with bedding and analysed for five minutes. Rears were counted manually. Motor function parameters measured were: • 1. Centre Rearing: mice rearing on hind legs unsupported; • 2. Rearing: mice rearing on hind legs with and without the support of cage walls; • 3. Activity: regular movement of the animal including walks; • 4. Front to Back (FR) count: movement of the animal from front to back of the cage; • 5. Active Time: duration (s/min) of activeness regardless of movement; • 6. Mobile Time: duration (s/min) of mobility; • 7. Rearing Time: duration of any rearing.

The test system of assay [2] is patient genetically diagnosed with GM1 Gangliosidosis. As to the kind of experiment: Case study of a GM1 Gangliosidosis patient (SARA, mRDS, EQ-5D-5L). It is filed as in vivo, human. As to conditions: after one month. An excerpt:
The patient in this case study was a person who was genetically diagnosed with GM1 Gangliosidosis and who was not able to stand or walk by themself, was very limited in daily activities (eating, washing, dressing themself was not possible), and had ocular movement disorder, anarthria, and distinct problems in cognitive function and concentration (neurological examination was not possible).
Before treatment was commenced, examination of the patient indicated a Scale for Assessment and Rating of Ataxia (SARA) score of 35/40, a mRDS score of 15, and a EQ-5D-5L visual scale of 50.
The patient was started on therapy with acetyl-leucine at a dose of 1.5 g per day for the first week, followed by a dose of 3 g per day for the second week onwards.

For assay [3], the system named is Hexb^−/− mouse (Sandhoff disease model). The assay can be described thus: Sandhoff disease mouse model (lifespan, bar crossing test, step cycle). It is filed as in vivo. As to the method:
This study made use of a mouse model of Sandhoff disease, the Hexb^−/− mouse, as described in Jeyakumar et al. (Jeyakumar, M. et al. (1999) Proc. Natl. Acad. Sci. USA 96: 6388-6393).
Wild-type (Hexb^+/+) mice were used as controls.
In FIG. 7A, acetyl-leucine-treated mice were treated with 0.1 g/kg acetyl-leucine from 3 weeks of age. The asterisks (*) indicates a p-value of <0.05 vs untreated Sandhoff mice. Data is average of n=6 mice per group. Without treatment, the median survival time of Sandhoff mice was 112 days. Treatment with acetyl-leucine (0.1 g/kg body weight since 3 weeks of age) increased the median lifespan to 120 days.
The bar crossing test is a method for assessing motor function in mice in which the mouse is placed hanging from the centre of a horizontal bar by its front limbs. A wild-type mouse with normal motor function will be able to engage its hind limbs and thereby move to one of the platforms at either end of the bar, and in doing so complete the test.
An untreated Sandhoff mouse is able to complete the test up until around 11 weeks of age. After this point motor function and hind-limb mobility/engagement have deteriorated to the point to which the mouse cannot complete the test, and will drop from the bar onto the padded surface below.
Step cycle is the length of time taken during locomotion by a limb from the time it leaves the ground until it leaves the ground on the next occasion.
Step cycle time was assessed at 12 weeks of age in untreated and acetyl-leucine treated Sandhoff model mice. Acetyl-leucine treatment constituted 0.1 g/kg body weight acetyl-leucine from 3 weeks of age.

On to `CC(=O)NC(CC(C)C)C(=O)O` (racemic) [acetyl-DL-leucine], for which the “Delay until display of disease symptoms versus untreated Npc1-/- mice” value in assay [1] (Npc1-/- mice treated from weaning) is “two”. In assay [1] (Npc1-/- mice, 0.1 g/kg from weaning), the “Delay of weight loss symptoms compared to the untreated group” value is on record as “two”. The “Gait properties (CatWalk) compared to untreated littermates” value in assay [1] (Npc1-/- mice, 0.1 g/kg from weaning, eight weeks of age) is given as “significantly improved gait”. The “Motor function properties (Open Field Activity Monitor) compared to untreated littermates” value in assay [1] (Npc1-/- mice, 0.1 g/kg from weaning, nine weeks of age) is recorded as “significantly improved motor function”. In assay [1] (Npc1-/- mice, 0.1 g/kg in chow from weaning, nine weeks of age), the Coat condition entry was “smooth and glossy coat”. Also, the Lifespan result in assay [1] (Npc1-/- mouse, 0.1 g/kg from 3 weeks of age) was “small but statistically significant increase in lifespan”. For the same molecule, the SARA in assay [2] (1.5 g then 3 g per day) was 35/40. Moreover, in assay [2], the Clinical re-examination findings result is “stable general condition, increased gait (more fluent), and stable stance in natural position”; the mRDS was 16. In assay [3] (Sandhoff mice, 12 weeks of age, 0.1 g/kg from 3 weeks, p<0.001 vs untreated), the “Average step cycle time” value was “significantly faster average step cycle times”. In addition, in assay [3] (Sandhoff mice, 12 weeks of age, 0.1 g/kg from 3 weeks, p<0.01 vs untreated), the “Hind step cycle time” value is “significantly faster hind step cycle times”. Moreover, the “Front step cycle time” value in assay [3] (Sandhoff mice, 12 weeks of age, 0.1 g/kg from 3 weeks, p<0.05 vs untreated) was “significantly faster front step cycle times”. Further, the “Motor function assessed via the bar-crossing test” value in assay [3] (Sandhoff mouse model, 0.1 g/kg body weight from 3 weeks of age) is “improved motor function and hind-limb mobility/engagement”. Also, the “Lifespan versus untreated Sandhoff mice” value in assay [3] (Sandhoff mouse, 0.1 g/kg from 3 weeks of age, p<0.05) is “statistically significant increase in the lifespan”.

The record behind these values is patent US12433863B2, “Pharmaceutical compositions and uses directed to lysosomal storage disorders” (INTRABIO LIMITED, priority 2016, dated 2025).
